# Entries after “also recorded” stand apart in the source; their conditions may differ. Square brackets hold non-standard residues; d marks the D form. Peptide text beside a SMILES is read from it. dPhe(4-Cl) = N[C@H](Cc1ccc(Cl)cc1)C(=O)O; d2Nal = N[C@H](Cc1ccc2ccccc2c1)C(=O)O; dCit = NC(=O)NCCC[C@@H](N)C(=O)O; d3Pal = N[C@H](Cc1cccnc1)C(=O)O
# Experiments:
# [1] = tested on: MA-10 mouse Leydig tumor cells; experiment: Progesterone production by MA-10 cells after 8-Br-cAMP (RIA); type: cell-based; conditions: 10 μM 19-Atriol with TVS167, 8-Br-cAMP 120 min
# Description: Cell culture, treatments, and steroid measurement. MA-10 mouse Leydig tumor cells were maintained in DMEM/Ham's nutrient mixture F12 (Gibco, Burlington, ON) supplemented with 5% fetal bovine serum, 2.5% hoarse serum, and 1% penicillin and streptomycin at 37° C. and 3.7% CO2. Cells were incubated in serum-free cell culture media supplemented with 1 mM 8-Bromo-cAMP (Enzo Biosciences, Farmingdale, N.Y.) or […] (50 ng/ml) hCG for 15, 30, 60, and 120 min or as indicated. Human NCL-H295R cells were maintained in DMEM/F12 media supplemented with 2.5% Ultroser G (Pall Biospera, Mississauga, ON), 1% penicillin/streptomycin (Invitrogen, Carlsbad, Calif.), and 1% ITS+ Premix (BD Biosciences, Franklin Lakes, N.J.) in a humidified chamber at 37° C. and 5% CO2.
# Experiments involving the TV peptides included 1×10^3 MA-10 or NCL-H295R cells, which were initially cultured for 24 hrs. Serum-free media were supplemented with 250 nM TV fusion peptides, and cells were incubated for 90 min after optimization. […]
# Progesterone or testosterone levels were measured with specific RIAs in triplicate using commercial anti-sera from rabbit and sheep, respectively (MP Biomedicals, Santa Ana, Calif.). Protein levels in MA-10 cell lysates were determined with the Bradford dye assay (Bio-Rad). LH and corticosterone levels were measured with rat-specific ELISA kits (CUSABIO, Wuhan, China).
# [2] = tested on: adult Sprague-Dawley rats; experiment: Cetrorelix i.p. injection, suppression of T and LH; type: in vivo, rat
# Description: Animals studies. Animals were handled according to protocols approved by the McGill University Animal Care and Use Committees. 60- to 64-day-old male Sprague-Dawley rats were purchased from Charles River, Senneville, QC. Rats were provided standard diets and tap water ad libitum and were maintained in controlled conditions (24° C., 12-h light, 12-h dark schedule). Animals were euthanized, and the testes were either immediately used for organ culture or intratesticular fluid collection, or testes and adrenal glands were snap-frozen for sectioning. Bolus injections with water or indicated doses of TV peptides were performed after administering isofluorane anesthesia. Rats were injected with either water or the indicated dose of TV fusion peptide. When FGIN-1-27 (Sigma-Aldrich, St. Louis, Mo.) was used, 8.5 μg in 50 μl (390 μM) of the compound in 1% DMSO solution containing Tween-20™ was injected into one of the testes of 68-72 day old Sprague-Dawley rats. Animals were incubated in standard conditions for 2 hrs. Surgeries were performed on 60- to 64-day-old rats bolus injection of water or TV peptides. Alzet mini-osmotic pumps releasing 75 ng of filled with water or a TV peptide or water over a course of 24 hrs was surgically implanted in the abdomen. The pumps were connected to a polyethylene catheter tubing (Alzet) and directed to the injected testis. […]
# Sprague-Dawley rats = experiment: FGIN-1-27 bolus intratesticular injection, T levels after 2 hrs; type: in vivo, rat; conditions: for intratesticular T levels / plasma T levels: 8.5 μg bolus, 2 hrs
# Description: Animals studies. Animals were handled according to protocols approved by the McGill University Animal Care and Use Committees. 60- to 64-day-old male Sprague-Dawley rats were purchased from Charles River, Senneville, QC. Rats were provided standard diets and tap water ad libitum and were maintained in controlled conditions (24° C., 12-h light, 12-h dark schedule). Animals were euthanized, and the testes were either immediately used for organ culture or intratesticular fluid collection, or testes and adrenal glands were snap-frozen for sectioning. Bolus injections with water or indicated doses of TV peptides were performed after administering isofluorane anesthesia. Rats were injected with either water or the indicated dose of TV fusion peptide. When FGIN-1-27 (Sigma-Aldrich, St. Louis, Mo.) was used, 8.5 μg in 50 μl (390 μM) of the compound in 1% DMSO solution containing Tween-20™ was injected into one of the testes of 68-72 day old Sprague-Dawley rats. Animals were incubated in standard conditions for 2 hrs. Surgeries were performed on 60- to 64-day-old rats bolus injection of water or TV peptides. Alzet mini-osmotic pumps releasing 75 ng of filled with water or a TV peptide or water over a course of 24 hrs was surgically implanted in the abdomen. The pumps were connected to a polyethylene catheter tubing (Alzet) and directed to the injected testis. The pump released 75 ng TV peptide to the testis over a course of 24 hrs at the rate of 1 μl/hour. GnRH antagonist, Cetrorelix™ (Sigma Aldrich) was injected into 59-day-old rats intraperitoneally (i.p.) at 0.4 mg/animal/day for 0-4 days (Horvath et al. 2004). Animal dissection was performed after CO2 anesthesia. Cardiac puncture was used for blood collection, and further centrifugation yielded serum separation. Testes were dissected and either decapsulated for intratesticular fluid collection or snap-frozen for sectioning.
# To further assess the link between VDAC1 and TSPO function in vivo, the acute effect of TVS167 was compared to that of a well characterized high affinity TSPO drug ligand, N,N-dihexyl-2-(4-fluorophenyl)indole-3-acetamide (FGIN-1-27) (Perheentupa et al. 2009), in the absence of LH signaling. Sprague-Dawley rats of 68-72 days old were given an i.p. injected of either H2O or 0.4 mg Cetrorelix™ for 0-4 days. On day 4, a bolus intratesticular injection of 8.5 μg FGIN-1-27 or its solvent (control) was given to one testis per animal. To assess the acute effect of this TSPO drug ligand on steroidogenesis intratesticular and circulating T levels were measured after 2 hrs.
compound,measurement,setting,value
C[C@]12CC[C@H]3[C@@H](CC=C4C[C@@H](O)CC[C@@]43CO)[C@@H]1CC[C@@H]2O [19-Atriol],effect on TVS167-stimulated steroid formation,[1],stimulatory effect of TVS167 on steroid formation was blocked
CC(=O)N[C@H](Cc1ccc2ccccc2c1)C(=O)N[C@H](Cc1ccc(Cl)cc1)C(=O)N[C@H](Cc1cccnc1)C(=O)N[C@@H](CO)C(=O)N[C@@H](Cc1ccc(O)cc1)C(=O)N[C@H](CCCNC(N)=O)C(=O)N[C@@H](CC(C)C)C(=O)N[C@@H](CCCNC(=N)N)C(=O)N1CCC[C@H]1C(=O)N[C@H](C)C(N)=O [Cetrorelix] (Ac-[d2Nal][dPhe(4-Cl)][d3Pal]SY[dCit]LRP[dA]-NH2),T levels in testes and serum,[2]; 0.4 mg/day i.p. for four days,completely suppressed; also recorded: blocked
same,LH release,[2]; adult rats,blocked LH release
"CCCCCCN(CCCCCC)C(=O)Cc1c(-c2ccc(F)cc2)[nH]c2ccccc12 [FGIN-1-27, N,N-dihexyl-2-(4-fluorophenyl)indole-3-acetamide]",intratesticular T levels,Sprague-Dawley rats; Cetrorelix-treated rats,significant increase
same,plasma T levels,Sprague-Dawley rats; Cetrorelix-treated rats,increased
same,intratesticular T levels,Sprague-Dawley rats; control (H2O i.p.) rats,significant increase
same,plasma T levels,Sprague-Dawley rats; control (H2O i.p.) rats,increased only in the Cetrorelix-treated animals
same,acute T formation in vivo compared with TVS167,Sprague-Dawley rats; control and Cetrorelix-treated rats,to a lesser extent that TVS167
